Results: patent US20090239846A1, “Novel Compounds” (Glaxo Group Limited, priority 2005, published 2009)

What was measured:
Recombinant human p38α = biological target: T1, Recombinant human p38α (Homo sapiens, UniProt Q16539); assay: Fluorescence anisotropy kinase binding assay (standard or low volume); details: 12 nM p38α, 5 nM fluorescent ligand
T1 construct: GST; made in house
Procedure, shortened: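 Activated GST-tagged recombinant human p38α (pre-activated with MBP-MKK6 DD) at 12 nM final with 5 nM rhodamine green-labelled pyridinylimidazole tracer in pH 7.5 HEPES/CHAPS/DTT/MgCl2 buffer. Test compound 0.28 nM–16.6 μM or 0.02 nM–25 μM final, 3% or 1.7% DMSO; 30–60 min at room temperature. Fluorescence anisotropy read (ex 485/em 535 nm) for Ki.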

T1 sequence (Q16539 whole entry): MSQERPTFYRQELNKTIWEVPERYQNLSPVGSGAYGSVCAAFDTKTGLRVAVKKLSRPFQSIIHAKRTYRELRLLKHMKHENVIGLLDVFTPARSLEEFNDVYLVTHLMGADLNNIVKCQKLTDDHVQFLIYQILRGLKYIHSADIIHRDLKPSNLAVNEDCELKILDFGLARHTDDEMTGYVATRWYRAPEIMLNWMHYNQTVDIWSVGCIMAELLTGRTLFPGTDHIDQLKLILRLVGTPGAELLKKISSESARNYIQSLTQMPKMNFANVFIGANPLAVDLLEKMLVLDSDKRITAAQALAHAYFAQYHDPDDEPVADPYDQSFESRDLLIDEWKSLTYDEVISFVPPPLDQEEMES

Compound | active in the assay (pIC50, p38α binding) (Recombinant human p38α) | melting point
Cc1ccc(C(=O)NCc2ccccc2)cc1-c1nc(NC2CCN(C)CC2)nc2c1CNC(=O)N2c1c(F)cccc1F [Example 22, 3-[8-(2,6-Difluorophenyl)-2-[(1-methyl-4-piperidinyl)amino]-7-oxo-5,6,7,8-tetrahydropyrimido[4′-d]pyrimidin-4-yl]-4-methyl-N-(phenylmethyl)benzamide] | active | 152 to 154 °C (dec.)
Cc1ccc(C(=O)NCc2ccccc2)cc1-c1nc(NCCNC(C)C)nc2c1CNC(=O)N2c1c(F)cccc1F [Example 20, 3-[8-(2,6-Difluorophenyl)-2-({2-[(1-methylethyl)amino]ethyl}amino)-7-oxo-5,6,7,8-tetrahydropyrimido[4,5-d]pyrimidin-4-yl]-4-methyl-N-(phenylmethyl)benzamide] | active | 133 to 137 °C
CNC(=O)c1ccc(C)c(-c2nc(NC3CCN(C)CC3)nc3c2CNC(=O)N3c2c(F)cccc2F)c1 [Example 173, 3-{8-(2,6-difluorophenyl)-2-[(1-methyl-4-piperidinyl)amino]-7-oxo-5,6,7,8-tetrahydropyrimido[4,5-d]pyrimidin-4-yl}-N,4-dimethylbenzamide] | – | 205 to 209 °C (dec.)
CNCCNc1nc(-c2cc(C(=O)NCc3ccccc3)ccc2C)c2c(n1)N(c1c(F)cccc1F)C(=O)NC2 [19(b), 3-(8-(2,6-Difluorophenyl)-2-{[2-(methylamino)ethyl]amino}-7-oxo-5,6,7,8-tetrahydropyrimido[4,5-d]pyrimidin-4-yl)-4-methyl-N-(phenylmethyl)benzamide] | active | 157 to 161 °C
CCOc1nc(-c2cc(NC(=O)c3ccc(C)c(F)c3)ccc2C)c2c(n1)N(c1c(F)cccc1F)C(=O)NC2 [Example 25] | – | 257.3 to 262.5 °C
CCCCN(CCCC)CCCNc1nc(-c2cc(C(=O)NC)ccc2C)c2c(n1)N(c1c(F)cccc1F)C(=O)NC2 [Example 171, 3-[2-{[3-(dibutylamino)propyl]amino}-8-(2,6-difluorophenyl)-7-oxo-5,6,7,8-tetrahydropyrimido[4,5-d]pyrimidin-4-yl]-N,4-dimethylbenzamide] | – | 112 to 115 °C
CNC(=O)c1ccc(C)c(-c2nc(NCCCNC(C)(C)C)nc3c2CNC(=O)N3c2c(F)cccc2F)c1 [Example 170, 3-[8-(2,6-difluorophenyl)-2-({3-[(1,1-dimethylethyl)amino]propyl}amino)-7-oxo-5,6,7,8-tetrahydropyrimido[4,5-d]pyrimidin-4-yl]-N,4-dimethylbenzamide] | – | 166 to 170 °C (dec.)
CNC(=O)c1ccc(C)c(-c2nc(NCCCNC(C)C)nc3c2CNC(=O)N3c2c(F)cccc2F)c1 [Example 168, 3-[8-(2,6-difluorophenyl)-2-({3-[(1-methylethyl)amino]propyl}amino)-7-oxo-5,6,7,8-tetrahydropyrimido[4,5-d]pyrimidin-4-yl]-N,4-dimethylbenzamide] | – | 153 to 157 °C (dec.)
CNc1nc(-c2cc(NC(=O)c3ccsc3)ccc2C)c2c(n1)N(c1c(F)cccc1F)C(=O)NC2 [Example 14, N-{3-[8-(2,6-difluorophenyl)-2-(methylamino)-7-oxo-5,6,7,8-tetrahydropyrimido[4,5-d]pyrimidin-4-yl]-4-methylphenyl}-3-thiophenecarboxamide] | – | 203 to 207 °C (dec.)
Cc1ccc(C(=O)NCc2ccccc2)cc1-c1nc(N2CCC(N(C)C(=O)OC(C)(C)C)CC2)nc2c1CNC(=O)N2c1c(F)cccc1F [Example 147, 1,1-dimethylethyl {1-[8-(2,6-difluorophenyl)-4-(2-methyl-5-{[(phenylmethyl)amino]carbonyl}phenyl)-7-oxo-5,6,7,8-tetrahydropyrimido[4,5-d]pyrimidin-2-yl]-4-piperidinyl}methylcarbamate] | – | 146 to 150 °C (dec.)
Cc1ccc(C(=O)NCc2ccccc2)cc1-c1nc(N2CCC(N)CC2)nc2c1CNC(=O)N2c1c(F)cccc1F [15(c), 3-[2-(4-Amino-1-piperidinyl)-8-(2,6-difluorophenyl)-7-oxo-5,6,7,8-tetrahydropyrimido[4,5-d]pyrimidin-4-yl]-4-methyl-N-(phenylmethyl)benzamide] | active | 210 to 266 °C (dec.)
COc1nc(-c2cc(NC(=O)c3ccsc3)ccc2C)c2c(n1)N(c1c(F)cccc1F)C(=O)NC2 [10(e), N-{3-[8-(2,6-difluorophenyl)-2-(methyloxy)-7-oxo-5,6,7,8-tetrahydropyrimido-[4,5-d]pyrimidin-4-yl]-4-methylphenyl}-3-thiophenecarboxamide] | active | 225 to 228 °C (dec.)
Cc1ccc(NC(=O)c2ccsc2)cc1-c1nc(N(C)C)nc2c1CNC(=O)N2c1c(F)cccc1F [Example 12, N-{3-[8-(2,6-difluorophenyl)-2-(dimethylamino)-7-oxo-5,6,7,8-tetrahydropyrimido[4,5-d]pyrimidin-4-yl]-4-methylphenyl}-3-thiophenecarboxamide] | – | 214 to 215 °C
Cc1ccc(C(=O)NCc2ccccc2)cc1-c1nc(NC2CC(C)(C)NC(C)(C)C2)nc2c1CNC(=O)N2c1c(F)cccc1F [Example 16, 3-{8-(2,6-Difluorophenyl)-7-oxo-2-[(2,2,6,6-tetramethyl-4-piperidinyl)amino]-5,6,7,8-tetrahydropyrimido[4,5-d]pyrimidin-4-yl}-4-methyl-N-(phenylmethyl)benzamide] | – | 160 to 165 °C (dec.)
CCOc1nc(-c2cc(NC(=O)c3ccsc3)ccc2C)c2c(n1)N(c1c(F)cccc1F)C(=O)NC2 [Example 13] | – | 199 to 202 °C (dec.)
CNC(=O)c1ccc(C)c(-c2nc(N3CCN(C)CC3)nc3c2CNC(=O)N3c2c(F)cccc2F)c1 [Example 169, 3-[8-(2,6-difluorophenyl)-2-(4-methyl-1-piperazinyl)-7-oxo-5,6,7,8-tetrahydropyrimido[4,5-d]pyrimidin-4-yl]-N,4-dimethylbenzamide] | – | 164 to 168 °C (dec.)
Cc1ccc(C(=O)NCc2ccccc2)cc1-c1nc(NC2CCNCC2)nc2c1CNC(=O)N2c1c(F)cccc1F [21(b), 3-[8-(2,6-Difluorophenyl)-7-oxo-2-(4-piperidinylamino)-5,6,7,8-tetrahydropyrimido[4,5-d]pyrimidin-4-yl]-4-methyl-N-(phenylmethyl)benzamide] | active | 172 to 176 °C (dec.)
CNC(=O)c1ccc(C)c(-c2nc(NCCN(C)C)nc3c2CNC(=O)N3c2c(F)cccc2F)c1 [Example 163(c), 3-(8-(2,6-difluorophenyl)-2-{[2-(dimethylamino)ethyl]amino}-7-oxo-5,6,7,8-tetrahydropyrimido[4,5-d]-pyrimidin-4-yl)-N,4-dimethylbenzamide] | active | 155 to 158 °C (dec.)
